Earlier results, collected in patent US20250333373A1, “L-2-Amino-4-Halobutyric Acid Derivative-L-Tartrate and Preparation Method Thereof” (Vulpes Agricultural Corp., priority 2022, published 2025).

Conditions: for herbicidal effect: isomers of racemic glufosinate

CP(=O)(O)CC[C@@H](N)C(=O)O [D]
herbicidal effect: almost inactive

CP(=O)(O)CC[C@H](N)C(=O)O [L-glufosinate]
herbicidal effect: has an herbicidal effect
herbicidal activity relative to common glufosinate (versus common (racemic) glufosinate): twice
